Reference: US9439438B2 (priority 2011, dated 2016)
Like-named read-outs stand apart in the source and are kept apart here.

Assays:
mice [1] = conditions: mouse, in vivo, ip
GPP130 [2] = target: T1, GPP130 (Homo sapiens, UniProt O00461); assay type: cell-based
T1 sequence (O00461 1-696): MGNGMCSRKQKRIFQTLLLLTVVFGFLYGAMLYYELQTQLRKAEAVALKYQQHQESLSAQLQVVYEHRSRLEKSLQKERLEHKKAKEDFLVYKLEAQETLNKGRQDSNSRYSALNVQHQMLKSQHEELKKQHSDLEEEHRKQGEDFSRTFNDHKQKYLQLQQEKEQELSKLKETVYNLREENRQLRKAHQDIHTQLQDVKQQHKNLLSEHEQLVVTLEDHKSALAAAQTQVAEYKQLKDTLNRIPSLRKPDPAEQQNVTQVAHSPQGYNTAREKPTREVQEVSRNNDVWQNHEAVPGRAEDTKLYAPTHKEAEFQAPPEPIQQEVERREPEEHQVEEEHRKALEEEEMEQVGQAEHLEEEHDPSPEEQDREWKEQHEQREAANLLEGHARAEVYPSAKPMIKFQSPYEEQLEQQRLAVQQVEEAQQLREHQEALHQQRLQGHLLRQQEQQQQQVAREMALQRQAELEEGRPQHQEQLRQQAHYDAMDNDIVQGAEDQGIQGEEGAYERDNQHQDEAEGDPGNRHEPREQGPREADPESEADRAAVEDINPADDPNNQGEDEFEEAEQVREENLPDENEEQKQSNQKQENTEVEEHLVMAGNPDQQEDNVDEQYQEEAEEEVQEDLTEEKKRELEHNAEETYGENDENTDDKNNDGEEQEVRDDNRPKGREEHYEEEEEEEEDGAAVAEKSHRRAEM

HeLa cells [3] = assay type: cell-based
mice [4] = conditions: mouse, in vivo, ip, 100 mg/kg
HeLa cells [5] = assay type: cell-based; remark: listed apart in the source
mice [6] = conditions: mouse, in vivo
HeLa cells [7] = assay type: cell-based; remark: listed apart in the source
HeLa cells [8] = system: HeLa cells
GPP130 [9] = target: T1, GPP130; assay type: cell-based; remark: listed apart in the source
[10] = system: vesicular stomatitis virus G protein; assay type: cell-based
[11] = in vivo; cited from earlier work
HeLa cells [12] = system: HeLa cells; remark: listed apart in the source
HeLa cells [13] = assay type: cell-based; remark: listed apart in the source

SMILES: [Cl][Mn][Cl] [Mn, MnCl2]
- apparent LD50 (mice [1]): 125 mg/kg
- paralysis and lethality (mice [1]; 100 mg/kg): Paralysis and lethality were not seen at any time
- paralysis and lethality (mice [1]; 150 mg/kg): got paralyzed within a few hours and were then euthanized
- paralysis and lethality (mice [1]; 250 mg/kg): got paralyzed within minutes and died
- paralysis and lethality (mice [1]; 500 mg/kg): got paralyzed within minutes and died
- GPP130 in cells after Mn (GPP130 [2]): lacked GPP130
- STxB reaching the ER (STxB-KDEL) (GPP130 [2]): STxB did not reach the ER
- STxB trafficking from the cell surface to the Golgi (GPP130 [2]): STxB accumulated in peripheral punctate structures resembling endosomes
- cholera toxin B-subunit (CTxB) trafficking (HeLa cells [3]): no difference between Mn-treated and control cells
- body weight, locomotor activity and demeanor (mice [4]): significantly lost weight, exhibited a depressed, lethargic attitude accompanied with diminished locomotor activity
- localization or trafficking of GP73, TGN46 and Lamp2 (HeLa cells [5]): did not alter
- STx1-induced renal damage (kidney histology) (mice [6]): no STx1-induced renal damage
- complete protection against lethal STx1 evident (mice [6]): not
- health and survival after lethal STx1 (mice [6]): all Mn-treated animals remained healthy and survived
- protection against lethal STx1 (mice [6]): Complete protection
- epidermal growth factor (EGF) internalization and degradation (HeLa cells [7]): did not affect
- STx1 concentration, relative to the LD50, at which 50% cell death was not evident (HeLa cells [8]): > 2000 fold
- estimated protection factor (HeLa cells [8]): 3800
- protection against STx-induced cell death (HeLa cells [8]): 3800 fold
- viability with Mn by itself (HeLa cells [8]): did not compromise viability
- sorting of STxB into endosomal tubules (GPP130 [9]): abolished
- ER-to-cell surface trafficking of vesicular stomatitis virus G protein [10]: did not affect
- clearance from the system [11]: cleared from the system within hours
- cell viability (MTT) (HeLa cells [12]): did not affect cell viability
- cellular STxB level (toxin degradation) (HeLa cells [13]): dramatic loss of STxB
- time at which STxB is degraded in Mn-treated cells (HeLa cells [13]): 1 to 2 h
